Reference: patent US20250042916A1 (ACONCAGUA BIO, INC., priority 2023, published 2025)

target: human calcitonin receptor (CTR) and RAMP3 (AMY3) in COS-7 cells (Homo sapiens, UniProt O60896+P30988); test: Amylin Receptor cAMP Assay I; format: cell-based; conditions: values marked *: Amylin Receptor cAMP Assay I; COS-7/AMY3 cells; read-out: Amylin Receptor cAMP Stimulation Activity: EC50
Description: Amylin Receptor cAMP Assay I
AMYRs are heterodimers of the class B calcitonin (CT) G-protein-coupled receptor (CTR) and receptor activity-modifying proteins (RAMPs). All three RAMPs can interact with the CTR and form AMY1, AMY2, AMY3 with RAMP1, RAMP2 and RAMP3, respectively. Like other class B1 GPCRs, the CT receptor family is canonically coupled to Gs-mediated cAMP production, and measurement of cAMP accumulation has been the primary assay used to determine peptide selectivity and potency.
To optimize functional activity directed toward Gas coupling, COS-7 cells were stably transfected with human calcitonin receptor (CTR) and RAMP3, simultaneously. 100× concentration of compound working solutions were prepared (Agilent Technologies Bravo) with 4-fold serial dilution in 384-well Echo LDV plate (Labcyte, Cat #LP-0200). 100 nL/well 100× concentration of compound working solutions were moved to 384-well white low volume plate (Greiner, Cat #784075) using Labcyte ECHO550. 1×10^5 cells/mL COS-7/CTR or COS-7/AMY3 (HD Biosciences) cell suspensions prepared with assay buffer [DPBS containing 0.5 mM IBMX (Sigma, Cat #15879) and 0.1% BSA (GENVIEW, Cat #FA016-100 g)], 10 μL cell suspensions were added to each well of previous generated assay plate which already contains 100 nL compound at 100× concentration using ThermoFisher Multidrop Combi (1000 cells/well). Seal the plate and incubate at 37° C. with 5% CO2 for 30 min.
After incubation, the cAMP assay signal was generated using cAMP Hi-range Kit (Cisbio). 5 μL cAMP-d2 working solution was added to each well, followed by 5 μL Anti-cAMP antibody-cryptate working solution which was added to each well using ThermoFisher Multidrop Combi. The samples were then incubated at room temperature for 1 hour protected from light. the fluorescence was read at 665 and 615 nm with Reader PerkinElmer EnVision.

Chain of human calcitonin receptor (CTR) and RAMP3 (AMY3) in COS-7 cells (P30988 25-474): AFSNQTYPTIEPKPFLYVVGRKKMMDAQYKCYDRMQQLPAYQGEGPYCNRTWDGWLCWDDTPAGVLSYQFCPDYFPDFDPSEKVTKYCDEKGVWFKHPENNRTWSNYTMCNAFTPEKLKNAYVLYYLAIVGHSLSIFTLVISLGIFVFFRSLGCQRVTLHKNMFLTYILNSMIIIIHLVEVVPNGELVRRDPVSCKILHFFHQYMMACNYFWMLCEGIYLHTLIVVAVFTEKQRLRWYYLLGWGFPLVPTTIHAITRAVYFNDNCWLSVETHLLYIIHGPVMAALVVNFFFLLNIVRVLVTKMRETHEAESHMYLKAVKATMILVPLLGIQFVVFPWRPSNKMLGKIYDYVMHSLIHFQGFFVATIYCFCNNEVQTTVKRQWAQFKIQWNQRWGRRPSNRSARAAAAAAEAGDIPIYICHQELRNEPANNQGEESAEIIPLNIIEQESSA
Chain of human calcitonin receptor (CTR) and RAMP3 (AMY3) in COS-7 cells (O60896 24-148): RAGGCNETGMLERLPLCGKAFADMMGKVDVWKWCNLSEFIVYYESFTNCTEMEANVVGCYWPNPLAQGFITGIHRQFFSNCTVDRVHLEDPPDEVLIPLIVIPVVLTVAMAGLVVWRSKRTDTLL

Row | SMILES | EC50 [nM]
1 | Cc1ncc(-c2c(CCc3ccc(F)cc3)nc(CC(C)C)c(C(N)=O)c2-c2ccc(C(=O)NCc3ccc(F)c(F)c3)s2)o1 [Compound 152, N-(3,4-difluorophenyl)methyl-5-{5-carbamoyl-2-[2-(p-fluorophenyl)ethyl]-6-isobutyl-3-(2-methyl-1,3-oxazol-5-yl)-4-pyridyl}-2-thenamide] | 11.5
2 | Cc1ncoc1-c1c(CCc2ccc(F)cc2)nc(CC(C)C)c(C(N)=O)c1-c1ccc(C(=O)NCc2ccc(F)c(F)c2)s1 [Compound 153, N-(3,4-difluorophenyl)methyl-5-{5-carbamoyl-2-[2-(p-fluorophenyl)ethyl]-6-isobutyl-3-(4-methyl-1,3-oxazol-5-yl)-4-pyridyl}-2-thenamide] | 12
3 | Cc1nc(-c2c(CCc3ccc(F)cc3)nc(CC(C)C)c(C(N)=O)c2-c2ccc(C(=O)NCc3ccc(F)c(F)c3)s2)no1 [Compound 154, N-(3,4-difluorophenyl)methyl-5-{5-carbamoyl-2-[2-(p-fluorophenyl)ethyl]-6-isobutyl-3-(5-methyl-1,2,4-oxadiazol-3-yl)-4-pyridyl}-2-thenamide] | 68.7
4 | Cc1nnc(-c2c(CCc3ccc(F)cc3)nc(CC(C)C)c(S(C)(=O)=O)c2-c2ccc(C(=O)NCc3ccc(F)c(F)c3)s2)o1 [Compound 155] | > 1000
5 | Cc1cc(CNc2nccc3cc(-c4c(C(N)=O)c(CC(C)C)nc(CCc5ccc(F)cc5)c4-c4nnc(C)o4)sc23)ccn1 [Compound 156] | 1200
6 | Cc1ccc(CNc2nccc3cc(-c4c(C(N)=O)c(CC(C)C)nc(CCc5ccc(F)cc5)c4-c4nnc(C)o4)sc23)cn1 [Compound 157] | 625
7 | Cc1nnc(-c2c(NCc3ccc(F)cc3)nc(CC(C)C)c(C(N)=O)c2-c2ccc(C(=O)NCc3ccc(F)c(F)c3)s2)o1 [Compound 158] | 120
8 | CC(C)Cc1nc(CCc2ccc(F)cc2)c(-c2cnn(C)c2)c(-c2ccc(C(=O)NCc3ccc(F)c(F)c3)s2)c1C(N)=O [Compound 159] | 91
9 | Cc1cc(-c2c(CCc3ccc(F)cc3)nc(CC(C)C)c(C(N)=O)c2-c2ccc(C(=O)NCc3ccc(F)c(F)c3)s2)ccn1 [Compound 160] | 26
10 | Cc1nnc(-c2c(CCc3ccc(F)cc3)nc(CC(C)C)c(C(N)=O)c2-c2cc3ccnc(N[C@@H]4CCc5ncccc54)c3s2)o1 [Compound 161] | 13
11 | Cc1nnc(-c2c(CCc3ccc(F)cc3)nc(CC(C)C)c(C(N)=O)c2-c2ccc3c(NCc4ccc(F)c(F)c4)nccc3c2)o1 [Compound 162] | 74
12 | Cc1nnc(-c2c(COc3ccc(F)cc3)nc(CC(C)C)c(C(N)=O)c2-c2cc3ccnc(NCc4ccc(F)c(F)c4)c3s2)o1 [Compound 163] | 40
13 | Cc1nnc(-c2c(COc3ccc(F)cc3)nc(CC(C)C)c(C(N)=O)c2-c2ccc(C(=O)NCc3ccc(F)c(F)c3)s2)o1 [Compound 164] | 325
14 | CO[C@@H]1CCCN(C(=O)c2ccc(-c3c(C(N)=O)c(CC(C)C)nc(CCc4ccc(F)cc4)c3-c3nnc(C)o3)s2)C1 [Compound 165] | > 1000
15 | CO[C@H]1CCCN(C(=O)c2ccc(-c3c(C(N)=O)c(CC(C)C)nc(CCc4ccc(F)cc4)c3-c3nnc(C)o3)s2)C1 [Compound 166] | > 1000
16 | Cc1nnc(-c2c(CCc3ccc(F)cc3)nc(OC(C)C)c(C(N)=O)c2-c2ccc(C(=O)NCc3ccc(F)c(F)c3)s2)o1 [Compound 167, 4-(5-((3,4-difluorobenzyl)carbamoyl)thiophen-2-yl)-6-(4-fluorophenethyl)-2-isopropoxy-5-(5-methyl-1,3,4-oxadiazol-2-yl)nicotinamide] | 336
17 | Cc1nnc(-c2c(CCc3ccc(F)cc3)nc(NC(C)C)c(C(N)=O)c2-c2ccc(C(=O)NCc3ccc(F)c(F)c3)s2)o1 [Compound 168, 4-(5-((3,4-difluorobenzyl)carbamoyl)thiophen-2-yl)-6-(4-fluorophenethyl)-2-(isopropylamino)-5-(5-methyl-1,3,4-oxadiazol-2-yl)nicotinamide] | 540
18 | Cc1nc(-c2c(CCc3ccc(F)cc3)nc(CC(C)C)c(C(N)=O)c2-c2ccc(C(=O)NCc3ccc(F)c(F)c3)s2)co1 [Compound 169, 4-(5-((3,4-difluorobenzyl)carbamoyl)thiophen-2-yl)-6-(4-fluorophenethyl)-2-isobutyl-5-(2-methyloxazol-4-yl)nicotinamide] | 122
19 | Cc1nnc(-c2c(CCc3ccc(F)cc3)nc(CC(C)C)c(C(N)=O)c2N2CCC(C(=O)NCc3ccc(F)c(F)c3)C2)o1 (stereo not drawn) [Compound 170, 4-(3-((3,4-difluorobenzyl)carbamoyl)pyrrolidin-1-yl)-6-(4-fluorophenethyl)-2-isobutyl-5-(5-methyl-1,3,4-oxadiazol-2-yl)nicotinamide] | 3720
20 | Cc1ccc(-c2c(CCc3ccc(F)cc3)nc(CC(C)C)c(C(N)=O)c2-c2ccc(C(=O)NCc3ccc(F)c(F)c3)s2)cn1 [Compound 171, 4-(5-((3,4-difluorobenzyl)carbamoyl)thiophen-2-yl)-2-(4-fluorophenethyl)-6-isobutyl-6′-methyl-[3, 3′-bipyridine]-5-carboxamide] | 59.7
21 | Cc1nnc(-c2c(CC3(c4ccc(F)cc4)CC3)nc(CC(C)C)c(C(N)=O)c2-c2ccc(C(=O)NCc3ccc(F)c(F)c3)s2)o1 [Compound 172, 4-(5-((3,4-difluorobenzyl)carbamoyl)thiophen-2-yl)-6-((1-(4-fluorophenyl)cyclopropyl)methyl)-2-isobutyl-5-(5-methyl-1,3,4-oxadiazol-2-yl)nicotinamide] | 1140
22 | Cc1nnc(-c2c(COc3ccc(F)cc3)nc(CC(C)C)c(C(N)=O)c2-c2cc3ccnc(N[C@@H]4CCc5ncccc54)c3s2)o1 [Compound 173, (R)-4-(7-((6,7-dihydro-5H-cyclopenta[b]pyridin-5-yl)amino)thieno[2,3-c]pyridin-2-yl)-6-((4-fluorophenoxy)methyl)-2-isobutyl-5-(5-methyl-1,3,4-oxadiazol-2-yl)nicotinamide] | 408
23 | Cc1nnc(-c2c(COc3ccc(F)cc3)nc(CC(C)C)c(C(N)=O)c2-c2cc3ccnc(N[C@@H]4CCc5ccccc54)c3s2)o1 [Compound 175, (R)-4-(7-((2,3-dihydro-1H-inden-1-yl)amino)thieno[2,3-c]pyridin-2-yl)-6-((4-fluorophenoxy)methyl)-2-isobutyl-5-(5-methyl-1,3,4-oxadiazol-2-yl)nicotinamide] | 211
24 | Cc1nnc(-c2c(CC(C)(C)c3ccc(F)cc3)nc(CC(C)C)c(C(N)=O)c2-c2ccc(C(=O)NCc3ccc(F)c(F)c3)s2)o1 [Compound 176, 4-(5-((3,4-difluorobenzyl)carbamoyl)thiophen-2-yl)-6-(2-(4-fluorophenyl)-2-methylpropyl)-2-isobutyl-5-(5-methyl-1,3,4-oxadiazol-2-yl)nicotinamide] | 1280
25 | Cc1nnc(-c2c(CCc3ccc(F)cc3)nc(CC(C)C)c(C(N)=O)c2-c2ccc3c(ccn3CC3CCc4ccccc43)c2)o1 (stereo not drawn) [Compound 177, 4-(1-((2,3-dihydro-1H-inden-1-yl)methyl)-1H-indol-5-yl)-6-(4-fluorophenethyl)-2-isobutyl-5-(5-methyl-1,3,4-oxadiazol-2-yl)nicotinamide] | 394
26 | Cc1nnc(-c2c(C3CC3c3ccc(F)cc3)nc(CC(C)C)c(C(N)=O)c2-c2ccc(C(=O)NCc3ccc(F)c(F)c3)s2)o1 (stereo not drawn) [Compound 178, 4-(5-((3,4-difluorobenzyl)carbamoyl)thiophen-2-yl)-6-(2-(4-fluorophenyl)cyclopropyl)-2-isobutyl-5-(5-methyl-1,3,4-oxadiazol-2-yl)nicotinamide] | 112
27 | Cc1nnc(-c2c(CCN3CCCCC3)nc(CC(C)C)c(C(N)=O)c2-c2ccc(C(=O)NCc3ccc(F)c(F)c3)s2)o1 [Compound 179, 4-(5-((3,4-difluorobenzyl)carbamoyl)thiophen-2-yl)-2-isobutyl-5-(5-methyl-1,3,4-oxadiazol-2-yl)-6-(2-(piperidin-1-yl)ethyl)nicotinamide] | > 1000
28 | Cc1nnc(-c2c(CC3COc4ccccc4O3)nc(CC(C)C)c(C(N)=O)c2-c2ccc(C(=O)NCc3ccc(F)c(F)c3)s2)o1 (stereo not drawn) [Compound 180, 4-(5-((3,4-difluorobenzyl)carbamoyl)thiophen-2-yl)-6-((2,3-dihydrobenzo[b][1,4]dioxin-2-yl)methyl)-2-isobutyl-5-(5-methyl-1,3,4-oxadiazol-2-yl)nicotinamide] | 138
29 | Cc1nnc(-c2c(CN3Cc4ccccc4C3=O)nc(CC(C)C)c(C(N)=O)c2-c2ccc(C(=O)NCc3ccc(F)c(F)c3)s2)o1 [Compound 181] | 9320
30 | Cc1nnc(-c2c(CCC(=O)N3CCCC3)nc(CC(C)C)c(C(N)=O)c2-c2ccc(C(=O)NCc3ccc(F)c(F)c3)s2)o1 [Compound 182] | 23300
